Test results reported in article PMC10712649 (Pharmacological research, 2023).
Values after ≈ are worked out from the molar mass of the structure shown.

What was measured:
[1] = Intrinsic clearance in liver microsomes; type: in vitro ADME; settings: mouse
[2] = tested on: primary aortic vascular smooth muscle cells (VSMCs); assay: Ca2+-mobilization assay, concentration-response; type: cell-based, human
mouse myometrial tissue = assay: Ex vivo isometric myometrial contractility organ bath assay; settings: for Emax: read-out: Emax, inhibition of myometrial contractions; for IC50: read-out: IC50, inhibition of myometrial contractions
MDCK permeability = type: in vitro ADME; settings: dog
[3] = Intrinsic clearance in liver microsomes; type: in vitro ADME; settings: human
[4] = Intrinsic clearance in liver microsomes; type: in vitro ADME; settings: rat
Solubility = type: physicochemical
[5] = In vitro therapeutic index; settings: smallest cell viability IC50 among the three cell types / Ca2+ assay IC50
myometrial cells = assay: Combination high-throughput Ca2+-mobilization assay; settings: for synergy in combination Ca2+-mobilization assay: 8 x 8 dose matrices, Combenefit
[6] = Human plasma protein binding; type: in vitro ADME
primary myometrial cells = assay: Ca2+-mobilization assay, concentration-response; type: cell-based; settings: Homo sapiens, read-out: Emax, Myometrial, inhibition of Ca2+-mobilization
[7] = tested on: mifepristone-induced mouse model of PTB; assay: In vivo therapeutic efficacy in mifepristone-induced mouse model of PTB
human myometrial tissue = assay: Ex vivo isometric myometrial contractility organ bath assay; settings: read-out: Emax, inhibition of myometrial contractions
CD-1 pregnant mice = assay: Minimal effective dose of mifepristone to induce PTB; type: in vivo, mouse; settings: s.c. on day 15 of pregnancy
[8] = tested on: mifepristone-induced mouse model of PTB; settings: mifepristone 150 μg; prior study; cited from earlier work

Row | Compound | microsomal CLint [1] [µL/min/mg] | Emax (mouse myometrial tissue) [%] | IC50 (mouse myometrial tissue) [µM] | Papp (MDCK permeability) [×10⁻⁶ cm/s] | microsomal CLint [3] [µL/min/mg] | microsomal CLint [4] [µL/min/mg] | solubility (Solubility) [µM] | TI (therapeutic index) [5] | synergy in combination Ca2+-mobilization assay (myometrial cells) | fold enhancement in potency in combination (myometrial cells; in combination with nifedipine) | fold improvement of efficacy in combination vs single-agent (myometrial cells; in combination with nifedipine) [fold] | fraction unbound [6] | Emax (primary myometrial cells) [%] | further results
1 | COc1c(-c2coc3cc4c(cc3c2=O)CC(OC(C)=O)C(C)(C)O4)ccc2c1C=CC(C)(C)O2 (stereo not drawn) [MA, mundulone acetate] | 886 | 27 | > 100 | 22.1 | 27.2 | 586 | 11 to 20 | 8.8 | exhibited synergistic efficacy with only nifedipine | 2–3 fold | 6 | 0.001 | 44.5 | Emax, % difference ([2]; myometrial cells vs aorta VSMCs): 70%
2 | COc1c(-c2coc3cc4c(cc3c2=O)CC(O)C(C)(C)O4)ccc2c1C=CC(C)(C)O2 (stereo not drawn) [Mundulone, mundulone] | 47.1 | 70 | 10 | 49.4 | < 20 | 30.7 | 21 to 40 (≈ 9.12 to 17.4 µg/mL) | 0.8 | displayed synergism with atosiban and nifedipine | 2–3 fold | 6 | 0.007 | 80.5 | IC50, Fold difference ([2]; aorta VSMCs vs myometrial cells): 2; timing of delivery ([7]; 30 μg mifepristone, 6.5, 13, or 26 mg/kg twice daily s.c., dose-dependently, p = 0.0457): delayed the timing of delivery; mortality ([7]; 26 mg/kg twice daily until the evening of day 17, 30 μg mifepristone): 100%; signs of impaired health or mortality in treated mice ([7]; single-agent, twice daily): did not show signs of impaired health or mortality until treated with 26 mg/kg twice daily for two days; Emax (human myometrial tissue): 57%; fold improvement of efficacy in combination vs single-agent (myometrial cells; in combination with atosiban): 2 fold; fold improvement of potency in combination vs single-agent (myometrial cells; with either atosiban (FR 3.7:1) or nifedipine (FR 1:4.4)): 2–3 fold
3 | CC#C[C@]1(O)CC[C@H]2[C@@H]3CCC4=CC(=O)CCC4=C3[C@@H](c3ccc(N(C)C)cc3)C[C@@]21C [mifepristone] | – | – | – | – | – | – | – | – | – | – | – | – | – | lowest dose required for 100% PTB rates (CD-1 pregnant mice): 30 µg
4 | COC(=O)C1=C(C)NC(C)=C(C(=O)OC)C1c1ccccc1[N+](=O)[O-] [nifedipine] | – | – | – | – | – | – | – | – | – | – | – | – | – | delivery occurring post-mifepristone administration [8]: ≤ 25 h
